In patent US20090208543A1, “METHOD AND APPARATUS FOR APPLYING A PROTECTIVE ORAL CARE COMPOSITION” (Oral Health Clinical Services, priority 2008, published 2009):

Experiment: Tooth bleaching effectiveness of gels on extracted human teeth (chroma meter, Delta E)
Details: comparison of catalase inhibitors
Description: Tooth bleaching effectiveness of the above gels was determined by using extracted human teeth. The teeth were freshly extracted, freed of all adherent tissues and stored in a sterile saline solution. The teeth were removed and the color was measured using a chroma meter commercially available from MINOLTA CR221. Readings were taken to record the L*, a*, and b* parameters. The teeth were then incubated in the various gels for 30 minutes. After this period, the gels were washed off and L*, a*, and b* parameters color re-measured. The change in color (Delta E) was then calculated using the CIE L*a*b* color difference equation:
Delta E=[(delta L*)^2+(delta a*)^2+(delta b*)^2]^0.5

## [F-].[Na+] [sodium fluoride]
  effectiveness among the compositions comprising the inhibitors: least effective
